Measurements published in PubChem BioAssay (NCI).
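A five-concentration, 48-hour dose response in 96-well plates underlies each endpoint, interpolated linearly between surrounding concentrations. TGI denotes the concentration required for complete inhibition of growth.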

Columns and labels:
Assay in all cases: growth of human tumour cells (NCI), 48 h
[1] = test system: HT29 colon
[2] = test system: MALME-3M melanoma
[3] = test system: SF-295 CNS
[4] = test system: EKVX NSCLC
[5] = test system: PC-3 prostate
[6] = test system: SF-268 CNS
[7] = test system: SK-MEL-28 melanoma
[8] = test system: NCI-H23 lung
[9] = test system: OVCAR-8 ovarian
[10] = test system: A498 renal
[11] = test system: HCT-116 colon
[12] = test system: SF-539 CNS
[13] = test system: HL-60(TB) leukemia
[14] = test system: HCC-2998 colon
[15] = test system: SNB-19 CNS
[16] = test system: DU-145 prostate

Measured: TGI

O=C(Cc1nc2ccc(C(=O)c3ccccc3)cc2[nH]c1=O)C(=O)Nc1ccc(Br)cc1
not listed: [14] | [15] | [16]
> 100 µM: all other assays above

N#CCCN(c1ccc(C=Nc2cccc([N+](=O)[O-])c2)cc1)S(=O)(=O)c1ccccc1
not listed: [5] | [10] | [16]
> 100 µM: all other assays above

Cc1cc2c(c(C(=O)NCCC(=O)O)c1)Oc1c(cc(C)cc1C(=O)NCCC(=O)O)S2
not listed: [10] | [13]
> 100 µM: all other assays above

CCOC(=O)C(OCC1CC=CCC1)Sc1ccccc1 (stereo unspecified)
not listed: [5] | [16]
> 100 µM: all other assays above

C[C@]12OC[C@H](c3ccccc3)N1C(=O)C1[C@H]2CC12SCCS2 (stereo partly specified)
not listed: [13]
> 100 µM: all other assays above

CC(C)(C)OC(=O)NC(C)(C)C(=O)NCCC(=O)O
not listed: [2] | [11] | [13] | [14] | [16]
> 100 µM: all other assays above

Cc1ccccc1C1OC1C(=O)c1ccccc1N (stereo unspecified)
not listed: [2] | [3] | [4] | [13]
> 100 µM: all other assays above

O=C1O[C@@H](c2ccccc2)C[C@@H]1CN1CCOCC1
64.1 µM: [8]
not listed: [5] | [11] | [15] | [16]
> 100 µM: all other assays above

COc1cc(COC(=O)N[C@H](C(=O)O)C(C)(C)C)c([N+](=O)[O-])cc1OC
not listed: [13]
> 100 µM: all other assays above

Cc1c(/C=N\NC(=S)N2CCN(C(=S)N/N=C\c3c(C)n(C)n(-c4ccccc4)c3=O)CC2)c(=O)n(-c2ccccc2)n1C
34.9 µM: [1]
not listed: [7] | [9] | [13]
> 100 µM: all other assays above

O=C1CC(O)c2c1csc2Br (stereo unspecified)
88 µM: [16]
62.4 µM: [9]
> 100 µM: [1] | [3] | [4] | [5] | [15]
49.1 µM: [11]
44 µM: [14]
82.4 µM: [2]
45.1 µM: [7]
88.6 µM: [6]
59.1 µM: [8]

CC(C)C(Sc1nc(-c2ccccc2)c(-c2ccccc2)[nH]1)C(=O)NNC(=S)Nc1ccccc1 (stereo unspecified)
42.2 µM: [11]
46.5 µM: [6]
40.1 µM: [13]
61.4 µM: [4]
> 100 µM: [9]
33.3 µM: [2]
35.5 µM: [3]
36.8 µM: [1]
37.2 µM: [8]
44.5 µM: [10]
35.8 µM: [12]
58.6 µM: [15]
41.1 µM: [7]
17.6 µM: [14]

O=c1oc2ccccc2c(O)c1C(c1cc(OCc2ccccc2)cc(OCc2ccccc2)c1)c1c(O)c2ccccc2oc1=O
51.8 µM: [7]
11.9 µM: [14]
41.8 µM: [4]
23.1 µM: [8]
36.7 µM: [12]
32.1 µM: [10]
> 44.5 µM: [9]
24 µM: [3]
24.5 µM: [16]
17.9 µM: [15]
21.1 µM: [5]
33.5 µM: [1]
33.3 µM: [6]
17.5 µM: [11]

COC1O[C@H]2CCN(C(=O)OCc3ccccc3)[C@H]2[C@H]1OCc1ccccc1 (stereo partly specified)
68.6 µM: [13]
> 90.5 µM: [8]
not listed: [5] | [16]
> 100 µM: all other assays above

Clc1cc(N/N=C(/c2ccccc2)c2ncccn2)ncn1
77.6 µM: [3]
58.3 µM: [8]
54.7 µM: [12]
28.5 µM: [11]
34.6 µM: [9]
93 µM: [4]
not listed: [2] | [10] | [13]
> 100 µM: all other assays above

Cc1cc(=O)cc2sc3c(C)cccc3nc1-2
73.3 µM: [12]
41.7 µM: [10]
26.3 µM: [6]
46.8 µM: [13]
60.5 µM: [11]
not listed: [4] | [5] | [16]
> 100 µM: all other assays above

COc1ccc(Nc2[nH]c(C(C)=O)c(N)c2C(=S)Nc2ccccc2)cc1
not listed: [5]
> 100 µM: all other assays above

Cc1c(Cl)cccc1NC(=O)C(=O)C1C(=O)CC(C)(C)CC1=O
not listed: [5] | [16]
> 100 µM: all other assays above

c1ccc([P+](CCNCCNCC[P+](c2ccccc2)(c2ccccc2)c2ccccc2)(c2ccccc2)c2ccccc2)cc1
not listed: [2] | [5] | [13]
> 100 µM: all other assays above

COc1ccc2c(c1)c1c(n2CCN2CCOCC2)-c2ccccc2CC1
71.3 µM: [12]
41.2 µM: [14]
66.6 µM: [2]
not listed: [4] | [13] | [15]
> 100 µM: all other assays above

CCOP(=O)(OCC)[C@H](O)c1ccsc1
not listed: [13]
> 100 µM: all other assays above

COc1ccc(/C(=C/n2ccnc2)C(=O)c2ccc(OC)c(OC)c2)cc1
not listed: [1] | [3] | [5] | [16]
> 100 µM: all other assays above

Cc1ccc(S(=O)(=O)N2CCN3C(=O)c4ccccc4C32c2ccc(F)cc2)cc1 (stereo unspecified)
63.5 µM: [10]
not listed: [12] | [13]
> 100 µM: all other assays above

CCSc1nnc(CSc2nc(-c3ccccc3)c(-c3ccccc3)[nH]2)n1-c1ccccc1
63.5 µM: [4]
34.2 µM: [15]
51.9 µM: [9]
36.5 µM: [14]
44.2 µM: [2]
40.8 µM: [8]
35.4 µM: [1]
36.2 µM: [11]
43.3 µM: [6]
45.5 µM: [13]
44.7 µM: [3]
34.6 µM: [10]
37 µM: [7]

N#C/C(=C\NC(=S)Nc1ccc(S(=O)(=O)Nc2ccccn2)cc1)C(N)=O
not listed: [13] | [14]
> 100 µM: all other assays above

C[N+](C)(C)CC(=O)N/N=c1\cc(C(=O)Nc2ccc(N=O)cc2C#N)oc2cc(O)ccc12
not listed: [5] | [16]
> 100 µM: all other assays above

CCOC(=O)C1=C(C)N(c2ccccc2)C2=C(C(=O)N(c3ccccc3)C2c2ccccc2)C1c1ccccc1 (stereo unspecified)
not listed: [5] | [10] | [16]
> 100 µM: all other assays above

COc1ccc(C2C(Cl)C(=O)N2NC(=O)c2ccc(NC(C)=O)cc2)cc1 (stereo unspecified)
not listed: [5] | [14] | [16]
> 100 µM: all other assays above

COC1(C)CC2N(C(=O)c3ccccc3)N=C(c3ccccc3)CC2(C)O1 (stereo unspecified)
not listed: [4] | [5] | [7] | [8] | [16]
> 100 µM: all other assays above

O=C1CC2(C[C@@H]3CCCCCCCCC[C@@H](C3)C2)N1 (stereo partly specified)
28.2 µM: [4]
30.4 µM: [12]
31.2 µM: [3]
30.9 µM: [10]
24.5 µM: [2]
39.8 µM: [6]
31.9 µM: [14]
34.6 µM: [15]
31.3 µM: [8]
31.5 µM: [7]
33.5 µM: [9]
38.8 µM: [13]
33.6 µM: [11]
26.9 µM: [1]

COC(=O)c1cc(CC(C)C)c2c(c1)[nH]c1ccccc12
not listed: [5] | [13] | [16]
> 100 µM: all other assays above

Cc1sc2nc3n(c(=O)c2c1C)N=CN(c1ccccc1)C3
not listed: [12] | [13]
> 100 µM: all other assays above

CC1C(c2cc(C(C)(C)C)c(O)c(C(C)(C)C)c2)c2cc3c(cc2OC1N1CCOCC1)OCO3 (stereo unspecified)
33.4 µM: [14]
31.6 µM: [5]
32.1 µM: [3]
30.7 µM: [11]
60 µM: [9]
> 100 µM: [1] | [4] | [16]
94.9 µM: [8]
43.7 µM: [12]
40.5 µM: [15] | [7]
77.3 µM: [6]
